Experimental data as given in paper PMC12032302, “A20 attenuates oxidized self-DNA-mediated inflammation in acute kidney injury” (Signal Transduction and Targeted Therapy, 2025).

Assays:
[1] = test system: IL-1β; assay: serum IL-1β of AKI mice (ELISA); type: in vivo, mouse; details: Cis or AA I AKI mice; DNase I 10 mg/kg i.p.
Protocol: Aristolochic acid I sodium salt was dissolved in PBS to 1 mg/mL and injected intraperitoneally at a dose of 10 mg/kg (body weight) every 24 h for 3 days; cisplatin was dissolved in PBS to 1.5 mg/mL for one-time intraperitoneal 25 mg/kg injection; LPS (Sigma, Cat#L2630) was dissolved in PBS to 2.5 mg/mL for one-time intraperitoneal 25 mg/kg injection; deoxyribonuclease I (DNase I, Sigma, Cat#SLBV1446) was dissolved in PBS to 1 mg/mL and injected intraperitoneally at a dose of 10 mg/kg at 4 h before cisplatin or AA I injection and every 24 h after injection. Disulfiram (MedChemExpress, CAS:97-77-8) was diluted in corn oil to 12.5 mg/mL and injected 50 mg/kg intraperitoneally every 24 h after cisplatin or AA I administration. Cu(II) (Sigma, Cat#344419) was dissolved in PBS to 30 µg/mL and administered intraperitoneally 6 h before disulfiram at a dose of 0.15 mg/kg; TNF-α (Peprotech, Cat#315-01 A) was dissolved in PBS to 10 µg/mL and injected at 100 µg/kg once through the caudal vein 24 h before cisplatin injection. […]
To measure the levels of CXCL10, IFN-β, IL-1β, and IL-18, mouse serum or cell culture medium was collected and measured by ELISA (NeoBioscience, China) according to the manufacturer’s instructions.

[2] = test system: AKI mice; assay: overall therapeutic effect in AKI mice; type: in vivo, mouse; details: for alleviation of AKI compared with MCC950: DNase I, disulfiram vs NLRP3 inhibitor MCC950
Protocol: (§1) Aristolochic acid I sodium salt was dissolved in PBS to 1 mg/mL and injected intraperitoneally at a dose of 10 mg/kg (body weight) every 24 h for 3 days; cisplatin was dissolved in PBS to 1.5 mg/mL for one-time intraperitoneal 25 mg/kg injection; LPS (Sigma, Cat#L2630) was dissolved in PBS to 2.5 mg/mL for one-time intraperitoneal 25 mg/kg injection; deoxyribonuclease I (DNase I, Sigma, Cat#SLBV1446) was dissolved in PBS to 1 mg/mL and injected intraperitoneally at a dose of 10 mg/kg at 4 h before cisplatin or AA I injection and every 24 h after injection. Disulfiram (MedChemExpress, CAS:97-77-8) was diluted in corn oil to 12.5 mg/mL and injected 50 mg/kg intraperitoneally every 24 h after cisplatin or AA I administration. Cu(II) (Sigma, Cat#344419) was dissolved in PBS to 30 µg/mL and administered intraperitoneally 6 h before disulfiram at a dose of 0.15 mg/kg; TNF-α (Peprotech, Cat#315-01 A) was dissolved in PBS to 10 µg/mL and injected at 100 µg/kg once through the caudal vein 24 h before cisplatin injection. Metformin (Sigma, Cat#D150959) was dissolved in PBS to 5 mg/mL and injected intraperitoneally at a dose of 50 mg/kg 24 h before cisplatin or AA I injection and every 24 h after injection. MCC950 (MedChem Express, CAS:256373-96-3) was dissolved in PBS to 5 mg/mL and injected intraperitoneally at a dose of 50 mg/kg 12 h before cisplatin or AA I injection and every 12 h after injection; berberine (APExBIO, Cat#N1368) was dissolved in PBS to 5 mg/mL and 5 mg/kg injected intraperitoneally at 36, 24 and 12 h before cisplatin; A20-derived-peptide was dissolved in ddH2O to 3 mg/mL and injected intraperitoneally at a dose of 15 mg/kg 1 h before cisplatin. To supervise the effects of various treatments on survival time and rate, the mice were observed, and survival curves were generated. To investigate the specific mechanisms, whole blood was retrieved from the orbit, serum was separated through centrifugation on the 4th day, and the mice were then sacrificed by cervical dislocation. Mice were randomly assigned in experiments, while there was no blinding during the animal experiments.

[3] = test system: AKI mice; assay: survival of AKI mice; type: in vivo, mouse; details: n = 10 per group
Protocol: as §1

[4] = test system: AKI mice; assay: tubular injury / renal injury of AKI mice (HE histology); type: in vivo, mouse
Protocol: (§2) LPS (Sigma, Cat#L2630) was dissolved in PBS to 2.5 mg/mL for one-time intraperitoneal 25 mg/kg injection; deoxyribonuclease I (DNase I, Sigma, Cat#SLBV1446) was dissolved in PBS to 1 mg/mL and injected intraperitoneally at a dose of 10 mg/kg at 4 h before cisplatin or AA I injection and every 24 h after injection. Disulfiram (MedChemExpress, CAS:97-77-8) was diluted in corn oil to 12.5 mg/mL and injected 50 mg/kg intraperitoneally every 24 h after cisplatin or AA I administration. Cu(II) (Sigma, Cat#344419) was dissolved in PBS to 30 µg/mL and administered intraperitoneally 6 h before disulfiram at a dose of 0.15 mg/kg; TNF-α (Peprotech, Cat#315-01 A) was dissolved in PBS to 10 µg/mL and injected at 100 µg/kg once through the caudal vein 24 h before cisplatin injection. […] MCC950 (MedChem Express, CAS:256373-96-3) was dissolved in PBS to 5 mg/mL and injected intraperitoneally at a dose of 50 mg/kg 12 h before cisplatin or AA I injection and every 12 h after injection; berberine (APExBIO, Cat#N1368) was dissolved in PBS to 5 mg/mL and 5 mg/kg injected intraperitoneally at 36, 24 and 12 h before cisplatin; […] To supervise the effects of various treatments on survival time and rate, the mice were observed, and survival curves were generated. To investigate the specific mechanisms, whole blood was retrieved from the orbit, serum was separated through centrifugation on the 4th day, and the mice were then sacrificed by cervical dislocation. Mice were randomly assigned in experiments, while there was no blinding during the animal experiments. Renal function was evaluated based on serum creatinine level and histological features. Serum creatinine was determined in the Clinical Pharmacology Lab, Clinical Trial Center, WCH, SCU. The kidneys were extracted from euthanized mice, immediately fixed with 4% paraformaldehyde, and embedded in paraffin. Furthermore, the samples were cut into 5 µm thick sections. These tissue samples were subjected to hematoxylin-eosin (HE) and […] according to standard protocols with HE reagent (Biosharp, Cat#BL702B, BL703B) and Masson reagent (Servicebio, Cat#G1006-100ML). The pathological changes were detected through optical microscopy, and the tubulointerstitial injury score was determined as previously reported.

[5] = test system: GSDMD cleavage in iBMDMs; assay: cleavage of GSDMD in iBMDMs after ox-self-DNA treatment (immunoblot); type: cell-based, mouse; details: AA-DNA with or without MCC950, Fig. 3i
Protocol: For immunoblot analysis of kidney tissue, total protein lysates were prepared from renal tissue, which was ground in liquid nitrogen and then added to lysis buffer in a Total Protein Extraction Kit (Signalway Antibody, Cat#PE001). Samples were centrifuged at 12,000 rpm for 15 min at 4 °C, and the supernatant was collected immediately. For immunoblot analysis of cells, cultured cells after treatment were lysed with lysis buffer, which was premixed with protease and phosphatase inhibitors (Signalway Antibody, Cat#PE001). The samples were centrifuged at 12,000 r/min for 15 min at 4 °C, and the supernatant was collected immediately. […]
(§3) Prepared protein samples were subjected to 6-15% SDS polyacrylamide gels and separated according to the protein concentrations. […] The protein bands were detected with an enhanced chemiluminescence kit (Millipore, Cat#WBKLS0500) using a gel imaging system (Bio-Rad, USA) for visualization and standardization of the amount of protein loaded. α-Tubulin was used as the internal control.
Self-DNA was isolated from the mouse kidney tissue using a DNeasy®Blood & Tissue Kit (QIAGEN, REF#69504) according to the manufacturer’s instructions. The isolated self-DNA were mixed with PicoGreen reagent, and then detected via employing SpectraMax iD3 microplate reader (Molecular Devices), with 502 nm incident ray and 523 nm emergent light. […]

[6] = test system: AKI mice; assay: serum creatinine of AKI mice; type: in vivo, mouse; details: mice following injection of cisplatin; berberine 5 mg/kg i.p.; vs PBS
Protocol: as §2

[7] = test system: AKI mice; assay: renal fibrosis of AKI mice (Masson staining); type: in vivo, mouse; details: mice following injection of cisplatin; berberine 5 mg/kg i.p.; vs PBS
Protocol: LPS (Sigma, Cat#L2630) was dissolved in PBS to 2.5 mg/mL for one-time intraperitoneal 25 mg/kg injection; deoxyribonuclease I (DNase I, Sigma, Cat#SLBV1446) was dissolved in PBS to 1 mg/mL and injected intraperitoneally at a dose of 10 mg/kg at 4 h before cisplatin or AA I injection and every 24 h after injection. Disulfiram (MedChemExpress, CAS:97-77-8) was diluted in corn oil to 12.5 mg/mL and injected 50 mg/kg intraperitoneally every 24 h after cisplatin or AA I administration. Cu(II) (Sigma, Cat#344419) was dissolved in PBS to 30 µg/mL and administered intraperitoneally 6 h before disulfiram at a dose of 0.15 mg/kg; TNF-α (Peprotech, Cat#315-01 A) was dissolved in PBS to 10 µg/mL and injected at 100 µg/kg once through the caudal vein 24 h before cisplatin injection. […] Renal function was evaluated based on serum creatinine level and histological features. Serum creatinine was determined in the Clinical Pharmacology Lab, Clinical Trial Center, WCH, SCU. […] The pathological changes were detected through optical microscopy, and the tubulointerstitial injury score was determined as previously reported.

[8] = test system: NEK7; details: cited from earlier work
From the text: Furthermore, we investigated the potential therapeutic medicines targeting to NEK7 and evaluated their effects on alleviating AKI. […] A ...

[9] = test system: A20; assay: A20 protein expression in iBMDMs / BMDMs (immunoblot); type: cell-based, mouse
Protocol: For immunoblot analysis of kidney tissue, total protein lysates were prepared from renal tissue, which was ground in liquid nitrogen and then added to lysis buffer in a Total Protein Extraction Kit (Signalway Antibody, Cat#PE001). Samples were centrifuged at 12,000 rpm for 15 min at 4 °C, and the supernatant was collected immediately. For immunoblot analysis of cells, cultured cells after treatment were lysed with lysis buffer, which was premixed with protease and phosphatase inhibitors (Signalway Antibody, Cat#PE001). The samples were centrifuged at 12,000 r/min for 15 min at 4 °C, and the supernatant was collected immediately. Ultimately, both types of protein samples were then mixed with 4× Laemmli loading buffer (Bio-Rad, Cat#1610747) and denatured by boiling at 95 °C for 5 min.
as §3, with “concentrations. Then, the protein bands were transferred to polyvinylidene difluoride (PVDF) membranes by a wet transfer apparatus (Bio-Rad, USA).” for “concentrations.”

[10] = test system: Tnfaip3 mRNA; assay: Tnfaip3 mRNA in iBMDMs (quantitative PCR); type: cell-based, mouse; details: ox-dsDNA90 or CDNs, BAY11-7082 1 μM, 4 h pretreated, Fig. 4j,k, n = 3
Protocol: Total RNA was extracted from around 1 × 10^6 cultured cells per population and purified by employing an RNA simple Total RNA Kit (TIANGEN, Cat#DP419), Following column purification, RNA was immediately reversed to cDNA by implementing the PrimeScript reverse transcription reagent kit (Takara, RR047A) according to the manufacturer’s instructions. The concentration of RNA was measured with a NanoDrop 2000 (Thermo Fisher Scientific, USA). Reverse transcription polymerase chain reaction (qRT‒PCR) was performed using SYBR Premix Ex Taq (Takara, CAT#172-5124) in an ABI7500 real-time PCR system (Applied Biosystems, CA). The primer sequences are shown in Supplementary Table 2. Relative gene expression was presented as fold changes normalized by Gapdh using the 2^−ΔΔCt method.

## deoxyribonuclease I [DNase I]
[1]
  serum level of IL-1β (in words): significantly reduced serum level of IL-1β
[2]; DNase I 10 mg/kg i.p. 4 h before cisplatin or AA I and every 24 h after
  therapeutic effect compared to Sting-knockout mice: more pronounced compared to that in Sting^−/− mice
[2]
  alleviation of AKI compared with MCC950: more effective in alleviating AKI than the NLRP3 inhibitor MCC950

## CCN(CC)C(=S)SSC(=S)N(CC)CC [disulfiram, Disulfiram]
[3]; Cis or AA I mice, disulfiram 50 mg/kg i.p. every 24 h, Cu(II) 0.15 mg/kg i.p. 6 h before disulfiram
  survival: improved survival with effects comparable to those of DNase I
[2]
  alleviation of AKI compared with MCC950: more effective in alleviating AKI than the NLRP3 inhibitor MCC950

## CC(C)(O)c1coc(S(=O)(=O)NC(=O)Nc2c3c(cc4c2CCC4)CCC3)c1 [MCC950]
[3]; mice treated with nephrotoxic drugs (Cis, AA I), MCC950 50 mg/kg i.p. 12 h before and every 12 h after
  survival: improved the survival
[4]; mice treated with nephrotoxic drugs (Cis, AA I), MCC950 50 mg/kg i.p.
  tubular injury (in words): attenuate tubular injury
[2]; MCC950 50 mg/kg i.p.
  progression of AKI: significantly alleviated the progression of AKI
[5]
  cleavage of GSDMD: significantly reduced the cleavage of GSDMD

## COc1ccc2cc3[n+](cc2c1OC)CCc1cc2c(cc1-3)OCO2 [berberine]
[3]; mice following injection of cisplatin, berberine 5 mg/kg i.p. at 36, 24 and 12 h before, vs PBS
  survival: improved survival
[6]
  serum creatinine (in words): decreased serum creatinine
[4]; mice following injection of cisplatin, berberine 5 mg/kg i.p., vs PBS
  renal injury (in words): attenuated renal injury
[7]
  renal fibrosis: decreased renal fibrosis
[8]
  NEK7 activity (literature): inhibit NEK7 activity

## Cc1ccc(S(=O)(=O)/C=C/C#N)cc1 [BAY11-7082]
[9]; iBMDMs, ox-dsDNA90 or CDNs, BAY11-7082 1 μM, 4 h pretreated, Fig. 4l
  increased expression of A20, protein level: almost completely inhibited the increased expression of A20 at both the mRNA and protein levels
[9]; ox-DNA stimulation, BAY11-7082, discussion
  increased expression of A20 under ox-DNA stimulation: abrogated
[10]
  increased expression of A20, mRNA level: almost completely inhibited the increased expression of A20 at both the mRNA and protein levels
